This is an account of results in ChEMBL document CHEMBL1145398, “Bidirectional, iterative approach to the structural delineation of the functional "chemoprint" in GPR40 for agonist recognition” (J Med Chem, 2007).

Assay [1] concerns Free fatty acid receptor 1 (Homo sapiens), O14842 [V237F]. As to the kind of experiment: Agonist activity at human GPR40 V237F mutant expressed in HEK-EM 293 cells assessed as increase in intracellular calcium. It is filed as functional, cell-based. Conditions: HEK293. For orientation: Calcium assays in cells follow changes in intracellular calcium, usually with a dye or a luminescent sensor.

For assay [2], the target named is Free fatty acid receptor 1 (Homo sapiens, UniProt O14842, N244A). In words: Agonist activity at human GPR40 N244A mutant expressed in HEK-EM 293 cells assessed as increase in intracellular calcium. It is filed as functional, cell-based, HEK293.
Assay [3] deals with Free fatty acid receptor 1 (Homo sapiens, UniProt O14842, H137A). In words: Agonist activity at human GPR40 H137A mutant expressed in HEK-EM 293 cells assessed as increase in intracellular calcium. Type of assay: functional, cell-based, HEK293.
In assay [4] the target is Free fatty acid receptor 1 (Homo sapiens, UniProt O14842, H86A). In words: Agonist activity at human GPR40 H86A mutant expressed in HEK-EM 293 cells assessed as increase in intracellular calcium. It is filed as functional, cell-based, HEK293.
Assay [5] has as its system Free fatty acid receptor 1 (Homo sapiens), O14842 [R183A]. In words: Agonist activity at human GPR40 R183A mutant expressed in HEK-EM 293 cells assessed as effect on intracellular calcium relative to wild type. Type of assay: functional, cell-based. The following applies: HEK293.
Assay [6] deals with Free fatty acid receptor 1 (Homo sapiens, UniProt O14842). In words: Agonist activity at human GPR40 expressed in HEK-EM 293 cells assessed as increase in intracellular calcium. It is filed as functional, cell-based, HEK293.
The test system of assay [7] is Free fatty acid receptor 1 (Homo sapiens), O14842 [R258A]. In words: Agonist activity at human GPR40 R258A mutant expressed in HEK-EM 293 cells assessed as effect on intracellular calcium relative to wild type. Type of assay: functional, cell-based. The following applies: HEK293.
Assay [8] addresses Free fatty acid receptor 1 (Homo sapiens, UniProt O14842, H137F). As to the kind of experiment: Agonist activity at human GPR40 H137F mutant expressed in HEK-EM 293 cells assessed as increase in intracellular calcium. Type of assay: functional, cell-based, HEK293.
Assay [9] has as its system Free fatty acid receptor 1 (Homo sapiens), O14842 [R258K]. As to the kind of experiment: Agonist activity at human GPR40 R258K mutant expressed in HEK-EM 293 cells assessed as effect on intracellular calcium relative to wild type. It is filed as functional, cell-based. Conditions: HEK293.
In assay [10] the target is Free fatty acid receptor 1 (Homo sapiens, UniProt O14842, H86F). As to the kind of experiment: Agonist activity at human GPR40 H86F mutant expressed in HEK-EM 293 cells assessed as increase in intracellular calcium. Type of assay: functional, cell-based, HEK293.

Broadly, the EC50 is the concentration at which the effect is half-maximal.

Sequence of Free fatty acid receptor 1 (Homo sapiens, UniProt O14842) (O14842 whole entry): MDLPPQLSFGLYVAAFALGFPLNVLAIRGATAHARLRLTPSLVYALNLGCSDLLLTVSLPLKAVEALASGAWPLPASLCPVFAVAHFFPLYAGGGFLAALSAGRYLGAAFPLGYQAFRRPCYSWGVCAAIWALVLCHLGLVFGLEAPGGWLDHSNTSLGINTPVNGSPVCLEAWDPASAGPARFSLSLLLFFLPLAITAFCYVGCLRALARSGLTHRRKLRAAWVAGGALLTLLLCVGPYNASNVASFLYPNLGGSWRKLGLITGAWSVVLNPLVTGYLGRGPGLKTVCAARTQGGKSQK
Sequence of Free fatty acid receptor 1 (Homo sapiens, UniProt O14842, H86A) (O14842 whole entry H86A): as the sequence (O14842 whole entry) above, with H86A counted along it
Sequence of Free fatty acid receptor 1 (Homo sapiens), O14842 [R258K] (O14842 whole entry R258K): as the sequence (O14842 whole entry) above, with R258K counted along it
Sequence of Free fatty acid receptor 1 (Homo sapiens), O14842 [R183A] (O14842 whole entry R183A): as the sequence (O14842 whole entry) above, with R183A counted along it
Sequence of Free fatty acid receptor 1 (Homo sapiens), O14842 [R258A] (O14842 whole entry R258A): as the sequence (O14842 whole entry) above, with R258A counted along it
Sequence of Free fatty acid receptor 1 (Homo sapiens, UniProt O14842, N244A) (O14842 whole entry N244A): as the sequence (O14842 whole entry) above, with N244A counted along it
Sequence of Free fatty acid receptor 1 (Homo sapiens, UniProt O14842, H137F) (O14842 whole entry H137F): as the sequence (O14842 whole entry) above, with H137F counted along it
Sequence of Free fatty acid receptor 1 (Homo sapiens, UniProt O14842, H86F) (O14842 whole entry H86F): as the sequence (O14842 whole entry) above, with H86F counted along it
Sequence of Free fatty acid receptor 1 (Homo sapiens), O14842 [V237F] (O14842 whole entry V237F): as the sequence (O14842 whole entry) above, with V237F counted along it
Sequence of Free fatty acid receptor 1 (Homo sapiens, UniProt O14842, H137A) (O14842 whole entry H137A): as the sequence (O14842 whole entry) above, with H137A counted along it

As for `O=C(O)CCc1ccc(NCc2cccc(Oc3ccccc3)c2)cc1` [GW9508], the Fold change in assay [1] was 1.1; in assay [5], above 100; in assay [7] it was above 100; in assay [9] it was above 100. Also, the 50% effective concentration (EC50) in assay [2] is 17800 nM; in [3] it was above 30000 nM; in assay [4], 2200 nM; in assay [6] it was 224 nM; in assay [8] it was 6800 nM; in [10] it was 1200 nM. Besides, in assay [6] (HEK293), the Activity was 223 nM.
